Patent publication US20080226596A1, “Therapeutic compositions and methods useful in treating hepatitis” (priority 2006, published 2008)
“Also recorded” adds a separate entry of the source.

Legend:
[1] = test system: A549 cells; assay: A549 lung cancer cell growth, MTT assay; format: cell-based, human; conditions: 100 μg/ml, day 6
Experimental: (§1) NIH3T3 (Yi, et al., Blood 85, 87 (1995)), WM9 (Forsberg, et al., Proc. Nat. Acad Sci. USA 90, 393 (1993)), DU145 (Mickey, et al., Cancer Res. 37, 4049 (1977)), LoVo (Drewinko, et al., Cancer Res. 36, 467 (1976)), HEY (Buick, et al., Cancer Res. 45, 3668 (1985)), U251 (Yoshida, et al., Cancer 50, 410 (1982)), A549 (Giard, et al., J. Natl. Cancer Inst. 51, 1417 (1973)) and SK-N-SH (Helson, et al., Cancer Res. 35, 2594 (1975)) cell lines have been described and were cultured in RPMI 1640 supplemented with 10% fetal calf serum (FCS). For measurement of sodium stibogluconate effects on cell growth in vitro, cells were cultured in the absence (−) or presence (+) of various amounts of sodium stibogluconate for 6 days with viable cells quantified by MTT assays (Mosmann, J. Immunol. Methods 65, 55 (1983)). Percentages of growth inhibition by sodium stibogluconate were calculated (.+−.x

[2] = test system: MDA231 cells; assay: MDA231 breast cancer cell growth, MTT assay; format: cell-based, human; conditions: single agent, 50-100 μg/ml, day 6
Experimental: (§2) For cell proliferation assays, cells were grown in 10% FCS culture medium containing various amounts of IFNs and/or sodium stibogluconate in 96 well plates and cultured at 37° C. for 3 or 6 days as indicated. The numbers of viable cells in proliferation assays were determined by MTT assays as described in Phatak et al., J. Immunol. 167, 3391 (2001).

[3] = test system: Baf3 cells; assay: Cellular protein tyrosine phosphorylation in Baf3 cells (Western blot); format: cell-based, murine; conditions: IL-3-deprived Baf3 cells
Experimental: For induction of cellular protein phosphorylation by sodium stibogluconate or pervanadate, Baf3 cells were incubated in 0.1% FCS-RPMI 1640 medium at 37° C. for 16 hours. The cells were then washed twice in RPMI 1640 medium and incubated with sodium stibogluconate or pervanandate (0.1 mM) for various times prior to termination by lysing cells in cold lysis buffer (50 mM Tris, pH 7.4; 150 mM NaCl; 0.2 mM Na3VO4; 20 mm NaF; 1% Nonidet P-40; 2 mM PMSF; 20 µg/ml of Aprotinin and 1 mM of sodium molybdic acid). To determine the effect of sodium stibogluconate or potassium antimonyl tartrate on IL-3-induced Jak/Stat phosphorylation, Baf3 cells were deprived of the growth factor for 16 hours in 0.1% FCS RPMI 1640 medium and then incubated with or without sodium stibogluconate or potassium antimonyl tartrate for 10 minutes. IL-3 was next added to the cell suspension and incubated for various times. The Cells were then harvested and lysed in cold lysis buffer at 4° C. for 45 minutes. Total cell lysates (TCL) were separated in SDS-PAGE gels, blotted onto nitrocellulose membrane (Schleicher & Schuell), probed with specific antibodies and detected using an enhanced chemiluminescence kit (ECL, Amersham, Arlington Heights, Ill.).

[4] = test system: C42 cells; assay: C42 prostate cancer cell growth; format: cell-based, human
Experimental: as §2

[5] = test system: DU145R cells; assay: DU145R cell growth, MTT assay; format: cell-based, human; conditions: day 6, compared with parental DU145
Experimental: DU145 cells were cultured in the presence of sodium stibogluconate (100 µg/ml) in 48 well plates for 3 weeks. Cells from a well containing a single colony were transferred to flasks, cultured in sodium stibogluconate-free medium for 3 weeks and used as DU145R cells for further characterization. Growth of DU145R cells in the absence or presence of sodium stibogluconate in day 6 culture was determined by MTT assays. cDNAs of the coding region of PRLs were derived by RT-PCR from DU145 and DU145R cells and sequenced using primers described below.

[6] = test system: WM9 transfectants; assay: Growth of WM9 transfectants, MTT assay; format: cell-based, human; conditions: 50 or 100 μg/ml, 6 days
Experimental: as §1
The effects of sodium stibogluconate on intracellular PTPases were assessed using NIH3T3 or WM9 transfectants. NIH3T3 or WM9 cells were transfected with the pBabepuro vector (V) or pBabepuro expression constructs of Flag-tagged PRLs using Lipofectamine (BRL) following the manufacturer's procedures. […]

[7] = test system: SK-N-SH cells; assay: SK-N-SH neuroblastoma cell growth, MTT assay; format: cell-based, human; conditions: 100 μg/ml, day 6
Experimental: as §1

[8] = test system: WM35 cells; assay: WM35 melanoma cell growth; format: cell-based, human
Experimental: as §2

[9] = test system: DU145 human prostate carcinoma xenografts; assay: DU145 xenografts in nude mice; format: in vivo; conditions: 440 mg/kg daily
Experimental: The dosage of sodium stibogluconate corresponds to approximately 440 mg Sb/kg body weight (average mouse body weight 27 g), substantially higher than the standard therapeutic dose of 20 mg Sb/kg and the high dose (143 mg Sb/kg) that was clinically used by accident without serious toxicity. This dose of sodium stibogluconate was based on a previous observation in a pilot study that mice could tolerate daily dose of 20 mg Sb (approximately 700-800 mg Sb/kg). […] In light of the relatively rapid rate of clearance of the drug in vivo, 440 mg Sb/kg dosage was used to ensure the detection of the effectiveness of the drug for this initial study.
For each of the cell lines, each of 16 mice received subcutaneous injection at the chest area of 3×10^6 cells/site (WM9) or 2×10^6 cells/site (DU145), two sites/mouse, on day 0. Mice were separated into four groups of four to receive treatment, injected into the thigh area starting on day 2. Tumor size was measured with a caliper to determine the two perpendicular diameters of each tumor. Tumor volume was calculated using the method of the NCI (length×width 2 in millimeters/2=volume in cubic millimeters). […]

O.O.O.O.O.O.O.O.O.O=C([O-])[C@@H]1[O][Sb]2([O-])([O][Sb]34([OH])[O][C@H]([C@H](O)CO)[C@H]([O]3)[C@H](C(=O)[O-])[O]4)[O][C@H]([C@H](O)CO)[C@@H]1[O]2.[Na+].[Na+].[Na+] [sodium stibogluconate]
killing of A549 cells [1]: near-complete cell killing
killing of MDA231 cells [2]: killed all cells; also recorded: complete or near complete killing
cellular protein tyrosine phosphorylation [3]: induced protein tyrosine phosphorylation
effect on C42 cells [4]: highly resistant
growth of DU145R cells with sodium stibogluconate [5]: growth resistance to sodium stibogluconate
growth of R86 cells [6]: only modest growth inhibition
killing of SK-N-SH cells [7]: near-complete cell killing
effect on WM35 cells [8]: minimally affected
histology of major organs [9]: unremarkable
survival of DU145-inoculated mice ([9]; until the end of the study): survived
